# Assay results from ChEMBL document CHEMBL3785011, “New IKK inhibitors: Synthesis of new imidazo[1,2-a]quinoxaline derivatives using microwave assistance and biological evaluation as IKK inhibitors” (Eur J Med Chem, 2016).
# The source made the active and inactive calls. No cut-off for these calls is given here.
# Experiments:
# [1] = molecular target: T1, Inhibitor of nuclear factor kappa-B kinase subunit alpha (Homo sapiens) (UniProt O15111); assay: Inhibition of human recombinant His tagged IKK1 expressed in baculovirus at 10 uM after 60 mins by Adapta assay
# T1 sequence (whole entry): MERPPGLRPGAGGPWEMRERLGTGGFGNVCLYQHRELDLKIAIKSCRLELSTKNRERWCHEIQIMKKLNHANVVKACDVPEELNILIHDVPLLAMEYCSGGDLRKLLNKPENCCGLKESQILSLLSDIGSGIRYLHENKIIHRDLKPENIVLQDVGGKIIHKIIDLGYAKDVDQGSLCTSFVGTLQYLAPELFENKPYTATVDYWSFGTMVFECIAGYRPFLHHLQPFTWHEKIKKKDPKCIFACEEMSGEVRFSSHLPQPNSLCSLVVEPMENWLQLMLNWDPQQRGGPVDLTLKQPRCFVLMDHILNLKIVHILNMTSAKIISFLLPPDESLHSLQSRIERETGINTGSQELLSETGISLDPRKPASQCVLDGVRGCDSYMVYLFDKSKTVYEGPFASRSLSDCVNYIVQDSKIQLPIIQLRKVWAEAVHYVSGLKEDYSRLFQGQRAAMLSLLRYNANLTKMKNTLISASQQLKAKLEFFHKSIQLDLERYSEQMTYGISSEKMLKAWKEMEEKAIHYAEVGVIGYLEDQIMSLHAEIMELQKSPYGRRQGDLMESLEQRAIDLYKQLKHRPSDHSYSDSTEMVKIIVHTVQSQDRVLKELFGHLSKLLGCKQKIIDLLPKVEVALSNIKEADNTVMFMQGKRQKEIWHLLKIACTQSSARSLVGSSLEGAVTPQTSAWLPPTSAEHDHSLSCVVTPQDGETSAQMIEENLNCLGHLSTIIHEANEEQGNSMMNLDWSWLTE
# [2] = molecular target: T2, Inhibitor of nuclear factor kappa-B kinase subunit beta (Homo sapiens, UniProt O14920); assay: Inhibition of human recombinant GST tagged IKK2 expressed in baculovirus using Ser/Thr05 peptide as substrate after 60 mins by Z-LYTE assay
# T2 sequence (O14920 whole entry): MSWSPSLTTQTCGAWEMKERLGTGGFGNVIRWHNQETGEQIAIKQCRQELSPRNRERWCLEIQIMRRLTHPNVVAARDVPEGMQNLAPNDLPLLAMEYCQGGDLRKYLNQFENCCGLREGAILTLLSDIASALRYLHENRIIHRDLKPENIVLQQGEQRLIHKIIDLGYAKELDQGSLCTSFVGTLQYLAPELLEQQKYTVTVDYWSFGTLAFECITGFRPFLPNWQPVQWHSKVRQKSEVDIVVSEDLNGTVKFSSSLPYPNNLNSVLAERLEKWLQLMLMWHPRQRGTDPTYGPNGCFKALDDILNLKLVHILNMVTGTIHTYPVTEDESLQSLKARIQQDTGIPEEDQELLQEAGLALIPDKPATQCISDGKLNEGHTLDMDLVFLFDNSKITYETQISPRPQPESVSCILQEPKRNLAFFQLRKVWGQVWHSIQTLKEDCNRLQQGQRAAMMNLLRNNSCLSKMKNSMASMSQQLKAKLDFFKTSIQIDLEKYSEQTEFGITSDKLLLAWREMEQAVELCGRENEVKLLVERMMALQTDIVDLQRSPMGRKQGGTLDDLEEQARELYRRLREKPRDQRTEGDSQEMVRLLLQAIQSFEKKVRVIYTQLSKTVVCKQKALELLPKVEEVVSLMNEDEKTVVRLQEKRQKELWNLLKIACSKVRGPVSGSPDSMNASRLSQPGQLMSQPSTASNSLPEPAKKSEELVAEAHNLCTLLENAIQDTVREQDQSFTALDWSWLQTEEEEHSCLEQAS
# [3] = molecular target: T3, Inhibitor of nuclear factor kappa-B kinase subunit beta (Homo sapiens) (UniProt O14920); assay: Inhibition of human recombinant GST tagged IKK2 expressed in baculovirus using Ser/Thr05 peptide as substrate at 10 uM after 60 mins by Z-LYTE assay
# T3 sequence (whole entry): T2 sequence (O14920 whole entry)
Structure (SMILES),inhibition [1],IC50 [2],inhibition [3]
CNc1nc2ccc(C)cc2n2c(Br)cnc12,13%,324 nM,72%
CNc1nc2ccc(C)cc2n2c(C)cnc12,1%,773 nM,65%
CNc1nc2ccc(C)cc2n2ccnc12,9%,579 nM,64%
CNc1nc2ccccc2n2c(-c3cccc(OC)c3)cnc12,13%,–,2%
CNc1nc2cc(C)ccc2n2ccnc12,9%,–,50%
Cc1ccc2nc(NCCN)c3ncc(C)n3c2c1,8%,–,64%
CNc1nc2ccccc2n2c(Br)cnc12,23%,–,60%
CNc1nc2cc(C)ccc2n2c(C)cnc12,19%,–,57%
CNc1nc2cc(C)ccc2n2c(Br)cnc12,26%,–,54%
CNc1nc2cc(C)ccc2n2c(-c3cccc(OC)c3)cnc12,7%,–,inactive
CNc1nc2ccccc2n2c(C)cnc12,7%,–,61%
CNc1nc2ccccc2n2ccnc12,7%,–,54%
CNc1nc2ccc(C)cc2n2c(-c3cccc(OC)c3)cnc12,3%,–,3%
